Test results from patent publication US8513421B2, “Substituted hydroxamic acids and uses thereof” (Millennium Pharmaceuticals, Inc., priority 2010, dated 2013).

Target: T1, purified human HDAC6 (Homo sapiens, UniProt Q9UBN7)
T1 construct: purchased BPS Bioscience 5006
T1 sequence (Q9UBN7 1-1215): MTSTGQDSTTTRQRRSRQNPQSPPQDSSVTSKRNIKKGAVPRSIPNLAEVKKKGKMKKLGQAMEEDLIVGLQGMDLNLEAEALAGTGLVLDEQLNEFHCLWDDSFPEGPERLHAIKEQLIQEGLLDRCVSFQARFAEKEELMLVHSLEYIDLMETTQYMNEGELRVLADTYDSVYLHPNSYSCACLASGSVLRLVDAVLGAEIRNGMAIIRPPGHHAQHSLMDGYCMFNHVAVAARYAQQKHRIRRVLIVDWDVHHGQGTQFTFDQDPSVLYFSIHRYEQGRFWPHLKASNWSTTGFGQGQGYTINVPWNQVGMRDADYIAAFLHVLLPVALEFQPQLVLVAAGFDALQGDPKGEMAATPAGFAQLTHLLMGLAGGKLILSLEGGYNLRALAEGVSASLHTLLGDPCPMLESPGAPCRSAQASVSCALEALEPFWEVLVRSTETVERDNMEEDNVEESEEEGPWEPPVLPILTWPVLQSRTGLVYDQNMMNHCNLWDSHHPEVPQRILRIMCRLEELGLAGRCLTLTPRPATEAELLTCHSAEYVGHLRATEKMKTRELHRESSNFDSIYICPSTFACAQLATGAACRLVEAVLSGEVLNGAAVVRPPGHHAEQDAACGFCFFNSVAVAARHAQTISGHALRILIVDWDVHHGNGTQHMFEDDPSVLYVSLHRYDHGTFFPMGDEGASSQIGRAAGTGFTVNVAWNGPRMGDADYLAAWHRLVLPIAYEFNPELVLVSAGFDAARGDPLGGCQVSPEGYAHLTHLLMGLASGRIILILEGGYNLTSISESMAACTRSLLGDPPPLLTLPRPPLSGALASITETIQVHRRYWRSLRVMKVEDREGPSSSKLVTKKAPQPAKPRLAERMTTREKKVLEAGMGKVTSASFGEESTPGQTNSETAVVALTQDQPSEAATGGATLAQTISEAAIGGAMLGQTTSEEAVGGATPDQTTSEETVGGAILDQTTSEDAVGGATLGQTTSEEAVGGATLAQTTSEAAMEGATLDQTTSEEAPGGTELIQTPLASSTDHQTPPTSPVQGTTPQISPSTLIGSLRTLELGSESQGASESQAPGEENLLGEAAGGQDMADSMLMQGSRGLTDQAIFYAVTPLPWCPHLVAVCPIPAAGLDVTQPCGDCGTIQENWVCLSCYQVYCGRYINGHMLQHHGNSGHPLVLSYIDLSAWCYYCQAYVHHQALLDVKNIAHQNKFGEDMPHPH
Test: HDAC6 Enzyme Assay
Assay type: biochemical
Conditions: purified human HDAC6, substrate Ac-Arg-Gly-Lys(Ac)-AMC, 1 hour at 30° C.
Method: To measure the inhibition of HDAC6 activity, purified human HDAC6 (BPS Bioscience; Cat. No. 5006) is incubated with substrate Ac-Arg-Gly-Lys(Ac)-AMC peptide (Bachem Biosciences; Cat. No. I-1925) for 1 hour at 30° C. in the presence of test compounds or vehicle DMSO control. The reaction is stopped with the HDAC inhibitor trichostatin A (Sigma; Cat. No. T8552) and the amount of Arg-Gly-Lys-AMC generated is quantitated by digestion with trypsin (Sigma; Cat. No. T1426) and subsequent measurement of the amount of AMC released using a fluorescent plate reader (Pherastar; BMG Technologies) set at Ex 340 nm and Em 460 nm. Concentration response curves are generated by calculating the fluorescence increase in test compound-treated samples relative to DMSO-treated controls, and enzyme inhibition (IC50) values are determined from those curves.

| IC50 | Compound |
| --- | --- |
| < 100 nM | O=C(NO)c1cnc2ccc(Nc3ccc(Cl)cc3)cc2c1 [Compound I-30, 6-[(4-chlorophenyl)amino]-N-hydroxyquinoline-3-carboxamide] |
| < 100 nM | Cn1cc(-c2cc(C(=O)Nc3ccc4ncc(C(=O)NO)cc4c3)cc(C(F)(F)F)c2)cn1 [Compound I-8, N-hydroxy-6-{[3-(1-methyl-1H-pyrazol-4-yl)-5-(trifluoromethyl)benzoyl]amino}quinoline-3-carboxamide] |
| < 100 nM | O=C(NO)c1cnc2cc(Nc3ccccc3)ccc2c1 [Compound I-24, 7-anilino-N-hydroxyquinoline-3-carboxamide] |
| 100 to 500 nM | O=C1CCc2c(Oc3ccc4ncc(C(=O)NO)cc4c3)ccnc2N1 [Compound I-26, N-hydroxy-6-[(7-oxo-5,6,7,8-tetrahydro-1,8-naphthyridin-4-yl)oxy]quinoline-3-carboxamide] |
| > 500 nM | COc1ccc2cc(C(=O)NO)cnc2c1 [Compound I-3, N-hydroxy-7-methoxyquinoline-3-carboxamide] |
| < 100 nM | O=C(Nc1ccccc1)Nc1ccc2ncc(C(=O)NO)cc2c1 [Compound I-14, 6-[(anilinocarbonyl)amino]-N-hydroxyquinoline-3-carboxamide] |
| < 100 nM | CC(C)(C)OC(=O)Nc1ccc2cc(C(=O)NO)cnc2c1 [Compound I-10, tert-butyl {3-[(hydroxyamino)carbonyl]quinolin-7-yl}carbamate] |
| 100 to 500 nM | O=C(NO)c1cnc2ccc(Oc3ccccc3)cc2c1 [Compound I-12, N-hydroxy-6-phenoxyquinoline-3-carboxamide] |
| 100 to 500 nM | CN(C)Cc1cc(C(=O)Nc2ccc3ncc(C(=O)NO)cc3c2)cc(C(F)(F)F)c1 [Compound I-1, 6-{[3-[(dimethylamino)methyl]-5-(trifluoromethyl)benzoyl]amino}-N-hydroxyquinoline-3-carboxamide] |
| < 100 nM | O=C(NO)c1cnc2ccc(NS(=O)(=O)c3ccccc3)cc2c1 [Compound I-13, N-hydroxy-6-[(phenylsulfonyl)amino]quinoline-3-carboxamide] |
| 100 to 500 nM | O=C(NO)c1cnc2ccc(Oc3ccncc3)cc2c1 [Compound I-32, N-hydroxy-6-(pyridin-4-yloxy)quinoline-3-carboxamide] |
| < 100 nM | O=C(NO)c1cnc2cc(Nc3ccncc3)ccc2c1 [Compound I-28, N-hydroxy-7-(pyridin-4-ylamino)quinoline-3-carboxamide] |
| 100 to 500 nM | O=C(NO)c1cnc2ccc(Oc3cccc(Cl)c3)cc2c1 [Compound I-2, 6-(3-chlorophenoxy)-N-hydroxyquinoline-3-carboxamide] |

Further lines, the compound ahead of its results:

| Compound | IC50 |
| --- | --- |
| O=C(NO)c1cnc2ccc(Oc3ccc(Cl)cc3)cc2c1 [Compound I-29, 6-(4-chlorophenoxy)-N-hydroxyquinoline-3-carboxamide] | 100 to 500 nM |
| O=C(NO)c1cnc2cc(-c3ccncc3)ccc2c1 [Compound I-33, N-hydroxy-7-pyridin-4-ylquinoline-3-carboxamide] | 100 to 500 nM |
| O=C(NO)c1cnc2ccc(CCc3ccccc3)cc2c1 [Compound I-18, N-hydroxy-6-(2-phenylethyl)quinoline-3-carboxamide] | < 100 nM |
| COc1ccc(C(=O)Nc2ccc3ncc(C(=O)NO)cc3c2)cc1 [Compound I-22, N-hydroxy-6-[(4-methoxybenzoyl)amino]quinoline-3-carboxamide] | < 100 nM |
| O=C(NO)c1cnc2ccc(NCc3ccccc3)cc2c1 [Compound I-17, 6-(benzylamino)-N-hydroxyquinoline-3-carboxamide] | < 100 nM |
| O=C(NO)c1cnc2ccc(NC(=O)c3ccccc3)cc2c1 [Compound I-20, 6-(benzoylamino)-N-hydroxyquinoline-3-carboxamide] | < 100 nM |
| O=C(NO)c1cnc2cc(Oc3cccc(Cl)c3)ccc2c1 [Compound I-15, 7-(3-chlorophenoxy)-N-hydroxyquinoline-3-carboxamide] | 100 to 500 nM |
| O=C1CCc2c(Oc3ccc4cc(C(=O)NO)cnc4c3)ccnc2N1 [Compound I-4, N-hydroxy-7-[(7-oxo-5,6,7,8-tetrahydro-1,8-naphthyridin-4-yl)oxy]quinoline-3-carboxamide] | 100 to 500 nM |
| CC(C)(C)OC(=O)Nc1ccc2ncc(C(=O)NO)cc2c1 [Compound I-21, tert-butyl {3-[(hydroxyamino)carbonyl]quinolin-6-yl}carbamate] | < 100 nM |
| O=C(NO)c1cnc2ccc(Nc3ccncc3)cc2c1 [Compound I-9, N-hydroxy-6-(pyridin-4-ylamino)quinoline-3-carboxamide] | 100 to 500 nM |
| COc1ccc(C(=O)Nc2ccc3cc(C(=O)NO)cnc3c2)cc1 [Compound I-5, N-hydroxy-7-[(4-methoxybenzoyl)amino]quinoline-3-carboxamide] | 100 to 500 nM |
| O=C(NO)c1cnc2cc(-c3ccc(Cl)cc3)ccc2c1 [Compound I-25, 7-(4-chlorophenyl)-N-hydroxyquinoline-3-carboxamide] | 100 to 500 nM |
| O=C(NO)c1cnc2cc(Oc3ccnc(NC(=O)C4CC4)c3)ccc2c1 [Compound I-23, 7-({2-[(cyclopropylcarbonyl)amino]pyridin-4-yl}oxy)-N-hydroxyquinoline-3-carboxamide] | 100 to 500 nM |
| COc1ccc2ncc(C(=O)NO)cc2c1 [Compound I-19, N-hydroxy-6-methoxyquinoline-3-carboxamide] | > 500 nM |
| O=C(NO)c1cnc2ccc(NC(=O)C3CC3)cc2c1 [Compound I-6, 6-[(cyclopropylcarbonyl)amino]-N-hydroxyquinoline-3-carboxamide] | < 100 nM |
| O=C(NO)c1cnc2ccc(Nc3ccccc3)cc2c1 [Compound I-7, 6-anilino-N-hydroxyquinoline-3-carboxamide] | 100 to 500 nM |
| O=C(NO)c1cnc2ccc(Oc3ccnc(NC(=O)C4CC4)c3)cc2c1 [Compound I-31, 6-({2-[(cyclopropylcarbonyl)amino]pyridin-4-yl}oxy)-N-hydroxyquinoline-3-carboxamide] | < 100 nM |
| O=C(NO)c1cnc2ccc(-c3ccc(Cl)cc3)cc2c1 [Compound I-27, 6-(4-chlorophenyl)-N-hydroxyquinoline-3-carboxamide] | 100 to 500 nM |
| O=C(NO)c1cnc2cc(Oc3ccc(Cl)cc3)ccc2c1 [Compound I-16, 7-(4-chlorophenoxy)-N-hydroxyquinoline-3-carboxamide] | 100 to 500 nM |
| O=C(NO)c1cnc2ccc(-c3ccncc3)cc2c1 [Compound I-11, N-hydroxy-6-pyridin-4-ylquinoline-3-carboxamide] | < 100 nM |
